{"source": "paper PMC3746001", "about": "(ACS chemical biology, 2013)", "key": {"[1]": {"biological_target": "T1, hetero-dimeric hpol γ (Homo sapiens, UniProt P54098)", "T1 sequence (P54098 1-1239)": "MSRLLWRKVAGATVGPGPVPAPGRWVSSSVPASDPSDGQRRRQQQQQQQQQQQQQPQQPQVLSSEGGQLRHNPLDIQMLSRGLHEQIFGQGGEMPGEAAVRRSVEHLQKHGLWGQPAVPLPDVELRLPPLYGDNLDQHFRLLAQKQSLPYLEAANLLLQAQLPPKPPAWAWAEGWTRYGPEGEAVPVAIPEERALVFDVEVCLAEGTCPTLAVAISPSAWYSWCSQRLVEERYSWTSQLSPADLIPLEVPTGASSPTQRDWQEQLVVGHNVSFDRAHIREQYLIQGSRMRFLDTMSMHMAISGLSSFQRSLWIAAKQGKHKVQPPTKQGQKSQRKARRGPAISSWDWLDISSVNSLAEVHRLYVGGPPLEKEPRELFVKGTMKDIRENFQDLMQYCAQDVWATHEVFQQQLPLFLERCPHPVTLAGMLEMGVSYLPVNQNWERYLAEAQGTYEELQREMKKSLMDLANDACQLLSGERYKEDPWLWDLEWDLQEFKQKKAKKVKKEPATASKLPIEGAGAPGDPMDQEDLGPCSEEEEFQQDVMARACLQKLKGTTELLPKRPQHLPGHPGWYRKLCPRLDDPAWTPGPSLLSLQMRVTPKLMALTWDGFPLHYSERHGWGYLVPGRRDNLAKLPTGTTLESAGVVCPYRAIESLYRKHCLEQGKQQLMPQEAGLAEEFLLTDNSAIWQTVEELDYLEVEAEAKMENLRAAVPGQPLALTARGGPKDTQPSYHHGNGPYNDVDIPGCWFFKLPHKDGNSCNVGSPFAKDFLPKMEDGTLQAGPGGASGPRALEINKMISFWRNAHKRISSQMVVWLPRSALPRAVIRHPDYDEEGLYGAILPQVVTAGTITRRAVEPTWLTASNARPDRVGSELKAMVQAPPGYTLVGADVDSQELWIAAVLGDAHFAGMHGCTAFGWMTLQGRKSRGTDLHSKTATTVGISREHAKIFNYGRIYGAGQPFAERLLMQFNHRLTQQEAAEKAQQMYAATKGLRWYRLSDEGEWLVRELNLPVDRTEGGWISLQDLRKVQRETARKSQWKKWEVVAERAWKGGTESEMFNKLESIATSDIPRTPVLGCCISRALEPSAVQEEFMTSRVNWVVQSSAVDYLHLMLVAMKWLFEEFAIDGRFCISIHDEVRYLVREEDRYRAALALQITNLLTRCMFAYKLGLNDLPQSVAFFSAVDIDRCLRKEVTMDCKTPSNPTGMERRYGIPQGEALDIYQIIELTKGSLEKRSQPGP", "T1 sequence (Q9UHN1 26-485 partner limits assumed)": "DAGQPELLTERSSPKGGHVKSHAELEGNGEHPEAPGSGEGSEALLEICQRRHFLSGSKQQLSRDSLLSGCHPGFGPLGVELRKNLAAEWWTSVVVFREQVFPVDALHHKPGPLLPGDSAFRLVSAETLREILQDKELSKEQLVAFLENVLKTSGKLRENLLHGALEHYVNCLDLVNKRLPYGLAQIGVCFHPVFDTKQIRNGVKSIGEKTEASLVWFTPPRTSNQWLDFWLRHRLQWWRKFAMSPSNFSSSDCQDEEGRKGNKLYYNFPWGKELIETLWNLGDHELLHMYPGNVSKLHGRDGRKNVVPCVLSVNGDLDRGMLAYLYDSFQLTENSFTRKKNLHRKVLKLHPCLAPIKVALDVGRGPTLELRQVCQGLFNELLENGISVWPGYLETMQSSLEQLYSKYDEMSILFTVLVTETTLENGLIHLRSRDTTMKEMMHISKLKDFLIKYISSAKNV", "test": "Fluorescence-based polymerase assay, hpol γ", "format": "biochemical"}, "[2]": {"biological_target": "Human DNA polymerase beta (hpol β) (Homo sapiens, UniProt P06746)", "test": "Fluorescence-based polymerase assay, hpol β", "format": "biochemical"}, "[3]": {"biological_target": "T2, Dpo4 (Saccharolobus solfataricus, UniProt Q97W02)", "T2 sequence (Q97W02 1-352)": "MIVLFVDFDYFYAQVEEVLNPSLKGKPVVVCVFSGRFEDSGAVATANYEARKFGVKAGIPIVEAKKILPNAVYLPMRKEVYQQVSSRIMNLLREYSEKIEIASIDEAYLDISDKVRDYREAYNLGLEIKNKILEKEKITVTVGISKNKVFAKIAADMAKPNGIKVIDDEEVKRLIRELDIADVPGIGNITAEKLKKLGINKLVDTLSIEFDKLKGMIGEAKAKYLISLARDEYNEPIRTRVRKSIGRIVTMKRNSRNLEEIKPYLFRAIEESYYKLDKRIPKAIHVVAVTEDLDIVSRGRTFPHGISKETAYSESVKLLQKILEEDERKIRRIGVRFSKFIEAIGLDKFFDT", "test": "Fluorescence-based polymerase assay, Dpo4", "format": "biochemical, Sulfolobus solfataricus"}, "[4]": {"biological_target": "T3, Dpo1 (Saccharolobus solfataricus, UniProt P26811)", "T3 sequence (P26811 1-882)": "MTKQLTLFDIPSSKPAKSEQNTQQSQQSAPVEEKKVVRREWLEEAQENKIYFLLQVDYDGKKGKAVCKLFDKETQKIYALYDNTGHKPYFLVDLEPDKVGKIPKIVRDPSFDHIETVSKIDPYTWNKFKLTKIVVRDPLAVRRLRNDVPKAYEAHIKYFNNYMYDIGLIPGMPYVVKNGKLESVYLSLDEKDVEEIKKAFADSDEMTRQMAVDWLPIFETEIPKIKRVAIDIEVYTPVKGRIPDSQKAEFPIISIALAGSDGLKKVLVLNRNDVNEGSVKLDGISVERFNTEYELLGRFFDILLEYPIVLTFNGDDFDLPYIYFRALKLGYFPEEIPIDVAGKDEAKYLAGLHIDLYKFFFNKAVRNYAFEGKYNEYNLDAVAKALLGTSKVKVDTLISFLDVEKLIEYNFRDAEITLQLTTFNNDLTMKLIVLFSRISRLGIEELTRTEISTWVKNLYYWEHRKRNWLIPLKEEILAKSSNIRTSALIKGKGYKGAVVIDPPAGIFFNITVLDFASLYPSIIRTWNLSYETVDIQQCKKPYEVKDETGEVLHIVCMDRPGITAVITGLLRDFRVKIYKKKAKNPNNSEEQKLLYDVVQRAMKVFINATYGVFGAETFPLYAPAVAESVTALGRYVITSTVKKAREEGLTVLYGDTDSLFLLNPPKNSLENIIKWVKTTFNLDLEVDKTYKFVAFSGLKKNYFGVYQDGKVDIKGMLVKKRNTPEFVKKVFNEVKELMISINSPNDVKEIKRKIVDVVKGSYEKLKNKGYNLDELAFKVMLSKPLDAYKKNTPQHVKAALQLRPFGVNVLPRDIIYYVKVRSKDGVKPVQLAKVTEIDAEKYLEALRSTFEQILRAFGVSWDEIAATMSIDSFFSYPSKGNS", "test": "Fluorescence-based polymerase assay, Dpo1", "format": "biochemical, S. solfataricus"}}}
{"smiles": "O=C1NC(=S)NC(=O)C1=Cc1cn(C(=O)c2ccccc2Br)c2ccc(Cl)cc12", "note": "[ITBA-12, 5-((1-(2-bromobenzoyl)-5-chloro-1H-indol-3-yl)methylene)-2-thioxodihydropyrimidine-4,6(1H,5H)-dione]", "values": [{"measurement": "IC50", "setting": "[1]", "value": "49 ± 6", "unit": "µM"}, {"measurement": "IC50", "setting": "[2]", "value": "41 ± 24", "unit": "µM"}, {"measurement": "Fold difference in IC50 between hpol η and hpol β", "setting": "[2]; hpol β versus hpol η", "value": "~ 1.4 fold"}, {"measurement": "IC50", "setting": "[3]", "value": "~80", "unit": "µM"}, {"measurement": "IC50", "setting": "[4]", "value": "~80", "unit": "µM"}]}
